Measurements taken from US11459336B2, “Pyrazine carbamates and their use as GluN2B receptor modulators” (JANSSEN PHARMACEUTICA NV, priority 2019, dated 2022).

Key:
[1] = target: T1, human GluN1/GluN2B NMDA receptors (Homo sapiens, UniProt Q05586+Q13224); assay: Calcium flux (FLIPR) assay on cloned human GluN1/GluN2B ion channels expressed in mammalian cells, standard assay; type: cell-based; conditions: glutamate ~EC40, 10 μM glycine, stable cell line with Tet-On induced expression
T1 construct: expressed in transfected cells
Experimental: (§1) NMDA receptors are ion channels that are highly permeable to Ca^2+ ions, rendering it possible to monitor NMDA receptor function using cell-based calcium flux assay. In this assay, co-agonists glutamate and glycine are added to cells heterologously expressing human GluN1/GluN2B NMDA receptors to initiate cellular Ca^2+ influx. The time course of the changes in intracellular calcium is measured using a fluorescent dye and a FLIPR (Fluorometric Imaging Plate Reader) device.
(§2) Twenty four hours before measurements, the expression of the NMDA receptors in the stable cell line is induced with Tet-On inducible system in the presence of a non-selective NMDA receptor blocker. On the day of the experiment, cell culture media is carefully washed and the cells are loaded with Calcium 5 Dye Kit (Molecular Devices) in dye loading buffer containing 137 mM NaCl, 4 mM KCl, 2 mM CaCl2, 0.5 mM MgCl2 (standard assay) or 1.5 mM MgCl2 (HTS assay), 10 mM HEPES and 5 mM D-glucose; pH 7.4. After 1 h incubation at the room temperature, the dye is washed away with the assay buffer (137 mM NaCl (standard assay) or 150 mM (HTS assay), 4 mM KCl (standard assay) or 3 mM (HTS assay), 2 mM CaCl2, 0.01 mM EDTA, 10 mM HEPES and 5 mM D-glucose; pH 7.4) In the FLIPR TETRA reader, various concentrations of the test compounds are added to the cells for 5 min while fluorescence is monitored to detect potential agonist activity. Next, co-agonists, glutamate and glycine are added for another 5 minutes. The concentration of glutamate corresponding to ˜EC40 (standard assay) or EC40 (HTS assay) is used to maximize the assay's signal window and ability to detect NMDA receptor antagonists and negative allosteric modulators. A saturating concentration (10 μM) of glycine is also present in the assay. A non-selective NMDA receptor antagonist, (+)MK-801 is used as a positive control for antagonist activity. The fluorescent signal in the presence of test compounds is quantified and normalized to the signal defined by the appropriate control wells.

[2] = Liver microsomal stability assay (extraction ratio); type: in vitro ADME; conditions: test compound 1 μM; 0.5 mg/mL liver microsomes, 1 mM NADPH, 37° C.; species not given (method: mouse, rat, and human)
Experimental: Microsomal stability studies (see, Chrovian et al, “1H-Pyrrolo[3,2-b]pyridine GluN2B-Selective Negative Allosteric Modulators”. ACS Med Chem Lett. 2019 Jan. 10; 10(3):261-266) were conducted on a Biomek® FX Robotic Liquid Handling Workstation (Beckman Coulter, Brea, Calif.), which consists of a 96-channel pipette head, a 12-position workstation deck, and a plate incubator. Test compounds (1 μM) were spiked in a reaction mix consisting of 100 mM potassium phosphate buffer (pH 7.4), 3 mM MgCl2, and 0.5 mg/mL liver microsomes from mouse, rat, and human (BD Gentest). The reaction was brought to 37° C. and initiated by adding NADPH to a final concentration of 1 mM. After mixing on the platedeck, 50 μL aliquots were excised from the reaction plate at 0, 5, 10, 20, 40, and 60 min and quenched with four volumes of acetonitrile spiked with […] of the internal standard phenytoin. Quenched plates were centrifuged at 5700 rpm for 10 min at 4° C., and supernatant was diluted 1:3 in water before LC/MS/MS analysis. The compound half-lives were derived from plots of the ln of percent remaining compound over time to determine the intrinsic clearance. The predicted hepatic clearance was derived from the intrinsic clearance value using equations from the well-stirred model (Current Drug Metabolism, 2008, 9, 940-951), where no correction was made plasma protein binding and the blood to plasma concentration ratio was assumed to be one. The extraction ratio (ER) was calculated by dividing the predicted hepatic clearance by species blood flow (Q), where Q is 90, 55, and 21.7 mL/min/kg for mouse, rat and human, respectively.

[3] = target: T2, human GluN1/GluN2B NMDA receptors (Homo sapiens, UniProt Q13224); assay: Calcium flux (FLIPR) assay on cloned human GluN1/GluN2B ion channels expressed in mammalian cells, standard assay; type: cell-based; conditions: glutamate ~EC40, 10 μM glycine, stable cell line with Tet-On induced expression
T2 construct: expressed in transfected cells
Experimental: as §1, §2

T1 sequence (Q13224 27-1484, other chains not shown): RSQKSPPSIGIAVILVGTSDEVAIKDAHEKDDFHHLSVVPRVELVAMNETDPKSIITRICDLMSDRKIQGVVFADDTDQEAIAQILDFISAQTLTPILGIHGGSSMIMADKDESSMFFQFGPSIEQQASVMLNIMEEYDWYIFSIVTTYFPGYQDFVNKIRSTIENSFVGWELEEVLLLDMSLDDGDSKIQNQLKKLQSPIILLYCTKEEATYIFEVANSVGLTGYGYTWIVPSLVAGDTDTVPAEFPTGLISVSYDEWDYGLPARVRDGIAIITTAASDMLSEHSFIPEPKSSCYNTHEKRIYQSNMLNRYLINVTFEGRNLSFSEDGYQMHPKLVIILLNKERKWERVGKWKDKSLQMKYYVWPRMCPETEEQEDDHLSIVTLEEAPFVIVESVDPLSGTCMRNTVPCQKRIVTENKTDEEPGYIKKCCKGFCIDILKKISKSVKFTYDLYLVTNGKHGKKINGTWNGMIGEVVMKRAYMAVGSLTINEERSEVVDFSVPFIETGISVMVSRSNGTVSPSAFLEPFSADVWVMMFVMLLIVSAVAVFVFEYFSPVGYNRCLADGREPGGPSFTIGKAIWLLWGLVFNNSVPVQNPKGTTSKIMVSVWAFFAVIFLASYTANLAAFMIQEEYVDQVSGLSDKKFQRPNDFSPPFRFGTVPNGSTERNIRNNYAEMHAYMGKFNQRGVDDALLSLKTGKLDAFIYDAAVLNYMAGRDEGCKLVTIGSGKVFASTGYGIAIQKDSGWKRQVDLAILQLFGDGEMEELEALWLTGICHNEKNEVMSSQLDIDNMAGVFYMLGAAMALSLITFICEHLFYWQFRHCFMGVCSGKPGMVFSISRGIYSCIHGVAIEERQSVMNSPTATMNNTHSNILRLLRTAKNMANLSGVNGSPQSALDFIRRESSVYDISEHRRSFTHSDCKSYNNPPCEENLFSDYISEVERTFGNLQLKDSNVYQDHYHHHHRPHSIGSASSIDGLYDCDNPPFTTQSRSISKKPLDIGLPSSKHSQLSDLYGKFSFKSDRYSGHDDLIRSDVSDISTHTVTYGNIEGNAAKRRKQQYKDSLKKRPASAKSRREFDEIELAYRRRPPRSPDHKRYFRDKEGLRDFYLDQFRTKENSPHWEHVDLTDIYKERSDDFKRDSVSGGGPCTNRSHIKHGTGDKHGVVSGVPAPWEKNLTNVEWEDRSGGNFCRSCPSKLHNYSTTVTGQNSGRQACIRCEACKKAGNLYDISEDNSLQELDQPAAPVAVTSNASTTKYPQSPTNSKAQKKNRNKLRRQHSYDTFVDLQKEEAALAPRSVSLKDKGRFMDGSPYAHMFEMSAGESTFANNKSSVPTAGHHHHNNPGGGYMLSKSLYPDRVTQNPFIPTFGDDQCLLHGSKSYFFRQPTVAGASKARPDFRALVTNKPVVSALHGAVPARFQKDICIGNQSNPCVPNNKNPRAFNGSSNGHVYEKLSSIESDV
T2 sequence (Q13224 27-1484, other chains not shown): as above

IC50 [1] [nM]	Extraction Ratio @ 1 μM [2]	IC50 [3] [nM]	SMILES
5390			CNC(=O)C1CN(Cc2cncc(-c3ccc(F)c(OC(F)F)c3)n2)C(=O)O1 (racemic) [Example 60, (R/S)-3-[[6-[3-(Difluoromethoxy)-4-fluoro-phenyl]pyrazin-2-yl]methyl]-N-methyl-2-oxo-oxazolidine-5-carboxamide]
5740			O=C1OC(C(=O)N2CCC2)CN1Cc1cncc(-c2ccc(F)c(OC(F)F)c2)n1 (racemic) [Example 61, (R/S)-5-(Azetidine-1-carbonyl)-3-[[6-[3-(difluoromethoxy)-4-fluoro-phenyl]pyrazin-2-yl]methyl]oxazolidin-2-one]
3680			CN(C)C(=O)C1CN(Cc2cncc(-c3ccc(F)c(C(C)(F)F)c3)n2)C(=O)O1 (racemic) [Example 62, (R/S)-3-[[6-[3-(1,1-Difluoroethyl)-4-fluoro-phenyl]pyrazin-2-yl]methyl]-N,N-dimethyl-2-oxo-oxazolidine-5-carboxamide]
> 3000			CNC(=O)C1CN(Cc2cncc(-c3ccc(F)c(C(C)(F)F)c3)n2)C(=O)O1 (racemic) [Example 63, (R/S)-3-[[6-[3-(1,1-Difluoroethyl)-4-fluoro-phenyl]pyrazin-2-yl]methyl]-N-methyl-2-oxo-oxazolidine-5-carboxamide]
> 3000			CC(F)(F)c1cc(-c2cncc(CN3CC(C(=O)N4CCC4)OC3=O)n2)ccc1F (racemic) [Example 64, (R/S)-5-(Azetidine-1-carbonyl)-3-[[6-[3-(1,1-difluoroethyl)-4-fluoro-phenyl]pyrazin-2-yl]methyl]oxazolidin-2-one]
> 3000			CN(C)C(=O)C1CN(Cc2cncc(-c3ccc(F)c(C(F)F)c3)n2)C(=O)O1 (racemic) [Example 65, (R/S)-3-[[6-[3-(Difluoromethyl)-4-fluoro-phenyl]pyrazin-2-yl]methyl]-N,N-dimethyl-2-oxo-oxazolidine-5-carboxamide]
141			CN(C)C(=O)C1CN(Cc2cncc(-c3ccc(F)c(OC(F)F)c3)n2)C(=O)O1 (racemic) [Example 66, (R/S)-3-[[6-[3-(Difluoromethoxy)-4-fluoro-phenyl]pyrazin-2-yl]methyl]-N,N-dimethyl-2-oxo-oxazolidine-5-carboxamide]
		530	O=C1OC2(CNC2)CN1Cc1cncc(-c2ccc(Cl)c(OC(F)F)c2)n1 [Example 67, 6-[[6-[4-Chloro-3-(difluoromethoxy)phenyl]pyrazin-2-yl]methyl]-8-oxa-2,6-diazaspiro[3.4]octan-7-one]
		599	CN1CC2(C1)CN(Cc1cncc(-c3ccc(Cl)c(OC(F)F)c3)n1)C(=O)O2 [Example 68, 6-[[6-[4-Chloro-3-(difluoromethoxy)phenyl]pyrazin-2-yl]methyl]-2-methyl-8-oxa-2,6-diazaspiro[3.4]octan-7-one]

More lines, now with the values behind:

SMILES	IC50 [1] [nM]	Extraction Ratio @ 1 μM [2]	IC50 [3] [nM]
CN(C)C(=O)C1CN(Cc2cncc(-c3ccc(Cl)c(OC(F)F)c3)n2)C(=O)O1 (racemic) [Example 55, (R/S)-3-[[6-[4-Chloro-3-(difluoromethoxy)phenyl]pyrazin-2-yl]methyl]-N,N-dimethyl-2-oxo-oxazolidine-5-carboxamide]	1390		
CNC(=O)C1CN(Cc2cncc(-c3ccc(Cl)c(OC(F)F)c3)n2)C(=O)O1 (racemic) [Example 56, (R/S)-3-[[6-[4-Chloro-3-(difluoromethoxy)phenyl]pyrazin-2-yl]methyl]-N-methyl-2-oxo-oxazolidine-5-carboxamide]	2050		
O=C1OC(C(=O)N2CCC2)CN1Cc1cncc(-c2ccc(F)c(C(F)F)c2)n1 (racemic) [Example 58, (R/S)-5-(Azetidine-1-carbonyl)-3-[[6-[3-(difluoromethyl)-4-fluoro-phenyl]pyrazin-2-yl]methyl]oxazolidin-2-one]	> 3000		
CNC(=O)C1CN(Cc2cncc(-c3ccc(F)c(C(F)F)c3)n2)C(=O)O1 (racemic) [Example 59, (R/S)-3-[[6-[3-(Difluoromethyl)-4-fluoro-phenyl]pyrazin-2-yl]methyl]-N-methyl-2-oxo-oxazolidine-5-carboxamide]	> 3000	0.18	
O=C1OC2(CC2)CN1Cc1cncc(-c2ccc(F)c(C(F)F)c2)n1 [Example 3, 5-[[6-[3-(Difluoromethyl)-4-fluoro-phenyl]pyrazin-2-yl]methyl]-7-oxa-5-azaspiro[2.4]heptan-6-one]		0.05	13
C[C@H]1COC(=O)N1Cc1cncc(-c2ccc(F)c(C(F)F)c2)n1 [Example 8, (4S)-3-[[6-[3-(Difluoromethyl)-4-fluoro-phenyl]pyrazin-2-yl]methyl]-4-methyl-oxazolidin-2-one]		0.06	872
Cc1ncc(-c2ccc(F)c(C(F)F)c2)nc1CN1C(=O)OC[C@H]1C [Example 11, (4R)-3-[[6-[3-(Difluoromethyl)-4-fluoro-phenyl]-3-methyl-pyrazin-2-yl]methyl]-4-methyl-oxazolidin-2-one]		0.18	192
Cc1ncc(-c2ccc(F)c(C(F)F)c2)nc1CN1CCCOC1=O [Example 15, 3-[[6-[3-(Difluoromethyl)-4-fluoro-phenyl]-3-methyl-pyrazin-2-yl]methyl]-1,3-oxazinan-2-one]		0.06	65
